According to patent US10034939B2, “Synergistic combination of immunologic inhibitors for the treatment of cancer” (The University of Chicago, priority 2012, dated 2018):
Read-outs that look alike come from different tables or passages of the source.

Legend:
[1] = biological target: Human indoleamine 2,3-dioxygenasae (IDO) (Homo sapiens (Human), UniProt P14902); test: Human indoleamine 2,3-dioxygenasae (IDO) enzyme assay; format: biochemical
Description: Human indoleamine 2,3-dioxygenasae (IDO) enzyme assay: Human indoleamine 2,3-dioxygenasae (IDO) with an N-terminal His tag was expressed in E. coli and purified to homogeneity. IDO catalyzes the oxidative cleavage of the pyrrole ring of the indole nucleus of tryptophan to yield N′-formylkynurenine.
IC50 data are from the IDO enzyme assay described above.

[2] = test system: CD3^+ cells in the peripheral blood; conditions: previous studies; cited from earlier work
[3] = test system: CD3^+ cells in the peripheral blood; test: Depletion of circulating T cells by FTY720 in tumor-bearing mice; format: in vivo; conditions: 25 μg FTY-720 oral gavage on day 4, relative to vehicle-treated mice
Method: Prior to the initiation of the therapy regimens (2.5 h pre-treatment), fingolimod (FTY-720, Enzo Life Sciences) was given to mice to inhibit lymphocyte migration out of lymphoid organs. FTY-720 stock solution (10 mg/ml in DMSO) was diluted to a 125 μg/ml concentration in PBS directly before administration. Mice received a dose of 25 μg FTY-720 or PBS containing DMSO as control via oral gavage. Therapy was initiated the same day (2.5 h delayed) and mice were analyzed on day 7 to perform the ex vivo functional assay as described above.
To determine whether the presence of CD8^+ T cells showing high levels of IL-2 production and proliferation within the tumor microenvironment following effective immunotherapy doublets was a result of new T cell migration into the tumor site or reactivation of T cells already present, FTY720 treatment was utilized to block the sphingosine 1-phosphate receptor-1 and thereby prohibit T cells from exiting lymphoid organs. Previous studies have shown that the effect can be detected as soon as 2 h after initial administration and is stable for up to 4 days. FTY720 was administered or control vehicle to tumor-bearing mice on day 4, 2.5 h prior to the initiation of immunotherapies. […] Overall, a 90% reduction in circulating CD3^+ T cells in FTY720-treated mice was detected (FIG. 13A). […]

B16-SIY cells = test: Tumor growth inhibition (TGI), unaffected fraction synergy analysis of combination therapies; format: in vivo, mice
Method: Treatment was initiated on day 4 post tumor inoculation with the following regimens for each drug. αCTLA-4 antibody (clone UC10-4F10-11, Bio-X-Cell) was given i.p. on day 4, 7 and 10 at a dose of 100 μg/mouse. αPD-L1 antibody (clone 10F.9G2, Bio-X-Cell) was given i.p. (100 μg/mouse) every other day starting on day 4 ending on day 16 post tumor inoculation. IDOi (INCB23843, Incyte Corporation) was dissolved in 0.5% methylcellulose and administered at 300 mg/kg po QD on a 5 days on/2 days off schedule starting on day 4. In the case of functional experiments with an earlier endpoint, treatment regimens were carried out as described until the day of T cell analysis. A comparison between IDOi and IDOc (INCB24360, Incyte Corporation) was perfomed according to the treatment regime described above. Tumor outgrowth was followed starting day 7 onwards and is depicted in combination with anti-CTLA4 (FIG. 18A) or anti-PD-L1 (FIG. 18B). N=5 mice per group, and a two-way Anova test was used to determine significance between the groups.
Treatment was administered in the same fashion as described for FIG. 9, with the exception that IDOi (INCB23843) was replaced by IDOc (INCB24360) in the indicated groups. […] Synergy analysis was performed with day 15 data and with day 23 data. Actual tumor growth inhibition (TGI) is the experimental TGI seen in this experiment for the combinations, and predicted TGI is the TGI that would have been expected for a purely additive combination effect from the performance of the individual agents in this experiment. Actual TGIs higher than predicted TGIs reflect better than additive (synergistic) data.

Chain of Human indoleamine 2,3-dioxygenasae (IDO) (P14902 whole entry): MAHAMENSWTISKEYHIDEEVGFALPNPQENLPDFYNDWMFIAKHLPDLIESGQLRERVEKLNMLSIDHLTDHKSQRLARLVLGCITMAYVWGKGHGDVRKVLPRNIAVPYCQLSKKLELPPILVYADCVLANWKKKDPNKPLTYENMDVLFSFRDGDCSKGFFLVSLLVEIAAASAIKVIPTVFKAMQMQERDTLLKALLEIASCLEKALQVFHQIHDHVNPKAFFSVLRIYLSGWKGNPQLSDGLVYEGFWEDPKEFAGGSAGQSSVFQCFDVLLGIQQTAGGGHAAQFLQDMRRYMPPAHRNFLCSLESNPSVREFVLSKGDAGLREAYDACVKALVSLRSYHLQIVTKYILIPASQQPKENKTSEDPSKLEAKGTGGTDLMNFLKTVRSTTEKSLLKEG

IC50 ([1]; read-out: IDO IC50) [nM]	SMILES	also measured
< 100	NS(=O)(=O)NCCCNc1nonc1C(=NO)Nc1ccc(F)c(Br)c1 [Example 3, 4-({3-[(Aminosulfonyl)amino]propyl}amino)-N-(3-bromo-4-fluorophenyl)-N′-hydroxy-1,2,5-oxadiazole-3-carboximidamide]	
< 100	CS(=O)(=O)NCCCNc1nonc1C(=NO)Nc1ccc(F)c(Br)c1 [Example 4, N-(3-Bromo-4-fluorophenyl)-N′-hydroxy-4-({3-[(methylsulfonyl)amino]propyl}amino)-1,2,5-oxadiazole-3-carboximidamide]	
< 200	NS(=O)(=O)NCCNc1nonc1C(=NO)Nc1ccc(F)c(Cl)c1 [Example 5, 4-({2-[(Aminosulfonyl)amino]ethyl}amino)-N-(3-chloro-4-fluorophenyl)-N′-hydroxy-1,2,5-oxadiazole-3-carboximidamide]	
< 200	CS(=O)(=O)NCCNc1nonc1C(=NO)Nc1ccc(F)c(Cl)c1 [Example 6, N-(3-Chloro-4-fluorophenyl)-N′-hydroxy-4-({2-[(methylsulfonyl)amino]ethyl}amino)-1,2,5-oxadiazole-3-carboximidamide]	
< 200	NS(=O)(=O)NCCCNc1nonc1C(=NO)Nc1ccc(F)c(Cl)c1 [Example 7, 4-({3-[(Aminosulfonyl)amino]propyl}amino)-N-(3-chloro-4-fluorophenyl)-N′-hydroxy-1,2,5-oxadiazole-3-carboximidamide]	
< 200	CS(=O)(=O)NCCCNc1nonc1C(=NO)Nc1ccc(F)c(Cl)c1 [Example 8, N-(3-Chloro-4-fluorophenyl)-N′-hydroxy-4-({3-[(methylsulfonyl)amino]propyl}amino)-1,2,5-oxadiazole-3-carboximidamide]	
< 100	NS(=O)(=O)NCCNc1nonc1C(=NO)Nc1ccc(F)c(C(F)(F)F)c1 [Example 9, 4-({2-[(Aminosulfonyl)amino]ethyl}amino)-N-[4-fluoro-3-(trifluoromethyl)phenyl]-N′-hydroxy-1,2,5-oxadiazole-3-carboximidamide]	
< 100	CS(=O)(=O)NCCNc1nonc1C(=NO)Nc1ccc(F)c(C(F)(F)F)c1 [Example 10, N-[4-Fluoro-3-(trifluoromethyl)phenyl]-N′-hydroxy-4-({2-[(methylsulfonyl)amino]ethyl}amino)-1,2,5-oxadiazole-3-carboximidamide]	
< 100	NS(=O)(=O)NCCCNc1nonc1C(=NO)Nc1ccc(F)c(C(F)(F)F)c1 [Example 11, 4-({3-[(Aminosulfonyl)amino]propyl}amino)-N-[4-fluoro-3-(trifluoromethyl)phenyl]-N′-hydroxy-1,2,5-oxadiazole-3-carboximidamide]	
< 100	CS(=O)(=O)NCCCNc1nonc1C(=NO)Nc1ccc(F)c(C(F)(F)F)c1 [Example 12, N-[4-Fluoro-3-(trifluoromethyl)phenyl]-N′-hydroxy-4-({3-[(methylsulfonyl)amino]propyl}amino)-1,2,5-oxadiazole-3-carboximidamide]	
< 500	NS(=O)(=O)NCCNc1nonc1C(=NO)Nc1cccc(C(F)(F)F)c1 [Example 13, 4-({2-[(Aminosulfonyl)amino]ethyl}amino)-N′-hydroxy-N-[3-(trifluoromethyl)phenyl]-1,2,5-oxadiazole-3-carboximidamide]	
< 200	CS(=O)(=O)NCCNc1nonc1C(=NO)Nc1cccc(C(F)(F)F)c1 [Example 14, N′-Hydroxy-4-({2-[(methylsulfonyl)amino]ethyl}amino)-N-[3-(trifluoromethyl)phenyl]-1,2,5-oxadiazole-3-carboximidamide]	
< 200	NS(=O)(=O)NCCCNc1nonc1C(=NO)Nc1cccc(C(F)(F)F)c1 [Example 15, 4-({3-[(Aminosulfonyl)amino]propyl}amino)-N′-hydroxy-N-[3-(trifluoromethyl)phenyl]-1,2,5-oxadiazole-3-carboximidamide]	
< 200	CS(=O)(=O)NCCCNc1nonc1C(=NO)Nc1cccc(C(F)(F)F)c1 [Example 16, N′-Hydroxy-4-({3-[(methylsulfonyl)amino]propyl}amino)-N-[3-(trifluoromethyl)phenyl]-1,2,5-oxadiazole-3-carboximidamide]	
< 500	Cc1cc(NC(=NO)c2nonc2NCCNS(C)(=O)=O)ccc1F [Example 17, N-(4-Fluoro-3-methylphenyl)-N′-hydroxy-4-({2-[(methylsulfonyl)amino]ethyl}amino)-1,2,5-oxadiazole-3-carboximidamide]	
< 750	N#Cc1cc(NC(=NO)c2nonc2NCCNS(N)(=O)=O)ccc1F [Example 18, 4-({2-[(Aminosulfonyl)amino]ethyl}amino)-N-(3-cyano-4-fluorophenyl)-N′-hydroxy-1,2,5-oxadiazole-3-carboximidamide]	
< 500	CS(=O)(=O)NCCNc1nonc1C(=NO)Nc1ccc(F)c(C#N)c1 [Example 19, N-(3-Cyano-4-fluorophenyl)-N′-hydroxy-4-({2-[(methylsulfonyl)amino]ethyl}amino)-1,2,5-oxadiazole-3-carboximidamide]	
< 500	NS(=O)(=O)NCCNc1nonc1C(=NO)NCc1cc(Br)co1 [Example 20, 4-({2-[(Aminosulfonyl)amino]ethyl}amino)-N-[(4-bromo-2-furyl)methyl]-N′-hydroxy-1,2,5-oxadiazole-3-carboximidamide]	
< 750	NS(=O)(=O)NCCNc1nonc1C(=NO)NCc1cc(Cl)co1 [Example 21, 4-({2-[(Aminosulfonyl)amino]ethyl}amino)-N-[(4-chloro-2-furyl)methyl]-N′-hydroxy-1,2,5-oxadiazole-3-carboximidamide]	
< 200	CN(CCNc1nonc1/C(=N/O)Nc1ccc(F)c(Cl)c1)S(N)(=O)=O [Example 24, 4-(2-[(Aminosulfonyl)(methyl)amino]ethylamino)-N-(3-chloro-4-fluorophenyl)-N′-hydroxy-1,2,5-oxadiazole-3-carboximidamide]	IC50 ([1]; average of five lots, read-out: IC50): 132 nM
	CCCCCCCCc1ccc(CCC(N)(CO)CO)cc1 [FTY720, fingolimod]	time after initial administration at which the effect can be detected [2]: 2 h; time for which the effect is stable [2]: up to 4 days; reduction in circulating CD3^+ T cells [3]: 90%
	NS(=O)(=O)NCCNc1nonc1/C(=N/O)Nc1ccc(F)c(Br)c1 [IDOc]	Actual TGI (B16-SIY cells; Day 15 (end of dosing), combination with anti CTLA4): 74%; Actual TGI (B16-SIY cells; Day 15 (end of dosing), combination with antiPDL1): 81%; Predicted TGI (B16-SIY cells; Day 15, combination with anti CTLA4, expected for a purely additive effect from the individual agents): 66%; Predicted TGI (B16-SIY cells; Day 15, combination with antiPDL1, expected for a purely additive effect): 24%; Actual TGI (B16-SIY cells; Day 23 (last day of vehicles), combination with anti CTLA4): 93%; Actual TGI (B16-SIY cells; Day 23 (last day of vehicles), combination with antiPDL1): 82%; Predicted TGI (B16-SIY cells; Day 23, combination with anti CTLA4, expected for a purely additive effect): 65%; Predicted TGI (B16-SIY cells; Day 23, combination with antiPDL1, expected for a purely additive effect): 35%
